From patent US6583150B1, “Pharmaceutical composition based on polyaromatic compounds” (Laboratorie L. Lafon, priority 1999, dated 2003) come the findings set out here.

Assay [1] deals with 12 human tumor lines: U-87MG, U-373MG, SW 1088, T24, J82, HCT-15, LoVo, MCF7, T-47D, A549, A-427 and PC-3. Kind of assay: MTT cytotoxicity test, panel of the 12 human tumor lines. The class given is cell-based. Conditions: Homo sapiens, read-out: average IC50. The protocol:
(§1) The influence of the compounds of formulae I and II on neoplastic cells was evaluated using the MTT calorimetric test. The principle of the MTT test is based on the mitochondrial reduction by metabolically active live cells of the yellow-colored product MTT (3-(4,5-dimethylthiazol-2-yl)-2,5-diphenyltetrazolium bromide) to a blue-colored product, formazan. The amount of formazan thus obtained is directly proportional to the amount of live cells present in the culture well(s). This amount of formazan is measured by spectrophotometry.
(§2) The cell lines are maintained in monolayer culture at 37° C. in stoppered culture dishes containing 25 MM HEPES MEM (Minimum Essential Medium) base medium. This medium, which is suitable for growing a range of varied diploid or primary mammalian cells, is then supplemented: […]
(§3) with a an amount of 5% FCS (Fetal Calf Serum) decomplemented at 56° C. for 1 hour, with 0.6 mg/mL of L-glutamine, with 200 IU/mL of penicillin, with […] of streptomycin, with 0.1 mg/mL of gentamicin.
(§4) The 12 human cancer cell lines used were obtained from the American Type Culture Collection (ATCC, Rockville, Md., USA). These 12 cell lines are:
U-373MG (code ATCC: HTB-17) and U-87MG (code ATCC: HTB-14) which are two glioblastomas, SW1088 (code ATCC: HTB-12) which is an astrocytoma, A549 (code ATCC: CCL-185) and A-427 (code ATCC: HTB-53) which are two non-small-cell lung cancers, HCT-15 (code ATCC: CCL-225) and LoVo (code ATCC: CCL-229) which are two colorectal cancers, T-47D (code ATCC: HTB-133) and MCF7 (code ATCC: HTB-22) which are two breast cancers, J82 (code ATCC: HTB-1) and T24 (code ATCC: HTB-4) which are two bladder cancers, PC-3 (code ATCC: CRL-1435) which is a prostate cancer.
Experimentally: 100 μl of a cell suspension containing 200 000 to 50 000 (depending on the cell type used) cells/mL of culture medium are inoculated in flat-bottomed 96-well multi-well plates and are incubated at 37° C. under an atmosphere comprising 5% CO2 and 70% humidity. After incubating for 24 hours, the culture medium is replaced with 100 μl of fresh medium containing either the various test compounds at concentrations ranging from 10^−5 to 10^−10 M or the solvent used to dissolve the test products (control condition). After incubating for 72 hours under the above conditions, the culture medium is replaced with 100 μl of a yellowish solution of MTT dissolved at a rate of 1 mg/mL in RPMI 1640. The microplates are reincubated for 3 hours at 37° C. and then centrifuged for 10 minutes at 400×g. The yellowish solution of MTT is removed and the blue formazan crystals formed at the cellular level are dissolved in 100 μl of DMSO. The microplates are then agitated for 5 minutes. The intensity of the resulting blue coloration, and thus of the conversion of the yellow MTT product into blue formazan by the cells that are still alive at the end of the experiment is quantified by spectrophotometry using a DYNATECH IMMUNOASSAY SYSTEM machine at wavelengths of 570 nm and 630 nm corresponding, respectively, to the maximum absorption wavelengths of formazan and to the background noise. Software built into the spectrophotometer calculates the average optical density values and also the standard deviation (Std. Dev.) and standard error of mean (SEM) values.
The inhibitory activity on the cell growth of the compounds of formula I and of formula II on the different tumor cell lines was compared with that of the natural product meridine (CRL 8348). All of the compounds of formula I and of formula II show significant inhibitory activity on the cell proliferation of the 12 human tumor lines: U-87MG, U-373MG, SW 1088, T24, J82, HCT-15, LoVo, MCF7, T-47D, A549, A-427 and PC-3 with an inhibitory concentration 50 (IC50) which is between 10^−6 M and 10^−10M, depending on the compounds and the tumor lines tested. By way of example, the values of the concentrations flanking the IC50 which are obtained on the various cell lines are given in table II: […]

In another assay the test system is U-87MG. Kind of assay: MTT cytotoxicity test, U-87MG. The assay is classed as cell-based. The conditions noted are these: Homo sapiens, U-87MG glioblastoma, 72 hours, read-out: concentrations flanking the IC50. The protocol: as §1, §2, §3, §4
U-373MG (code ATCC: HTB-17) and U-87MG (code ATCC: HTB-14) which are two glioblastomas, Experimentally: 100 μl of a cell suspension containing 200 000 to 50 000 (depending on the cell type used) cells/mL of culture medium are inoculated in flat-bottomed 96-well multi-well plates and are incubated at 37° C. under an atmosphere comprising 5% CO2 and 70% humidity. […] The intensity of the resulting blue coloration, and thus of the conversion of the yellow MTT product into blue formazan by the cells that are still alive at the end of the experiment is quantified by spectrophotometry using a DYNATECH IMMUNOASSAY SYSTEM machine at wavelengths of 570 nm and 630 nm corresponding, respectively, to the maximum absorption wavelengths of formazan and to the background noise. […]

Regarding `O=C1c2ncccc2-c2nc3ccccc3c3ccnc1c23` [CRL 8299, Benzo[b]pyrido[4,3,2-de][1,7]phenanthroline-8-one], the IC50 in assay [1] is 2.2 nM; in the assay with U-87MG, under 0.1 nM.
